These compounds were tested against human BLT1 receptor (Homo sapiens (Human), UniProt Q15722) (assay: BLT-1 cAMP Assay). Settings: antagonist mode; HEK293 cells recombinantly expressing human BLT1 receptor; forskolin 4 μM and LTB4 2 nM.
Format: cell-based
Experimental: The ability of compounds to antagonize the human BLT1 receptor was determined using a kit to measure changes in intracellular cyclic AMP levels (cAMP dynamic assay kit, Cisbio Cat. No. 62AM4PEC). HEK293 cells recombinantly expressing human BLT1 receptor, previously frozen in Recovery Medium (Life Technologies, Cat. No. 12648-010) were thawed and diluted into assay medium (HBSS (Hyclone SH 30268.01), 20 mM HEPES (Gibco 15630-106), 800 μM IBMX (Sigma 15879), 0.1% DTPA BSA (Perkin Elmer CR84-100)). The cell suspension was centrifuged at 200×g for 10 min and then resuspended in fresh assay medium to a density of 2.5×10^5 cells/mL. A Labcyte Echo 550 acoustic dispenser was used to transfer 25 nL of test compound dissolved in DMSO into the wells of a dry 384-well plate (Greiner 784075). All subsequent liquid additions were performed using a BIORAPTR (FRD; Beckman Coulter). Next, 5 μL of cell suspension was added and incubated for 20 min. at 37° C. and 5% CO2 in a humidified plastic tray. To test for agonist activity 5 μL of assay buffer containing forskolin (Sigma F-6886. 4 μM for BLT1) was added and incubated for 30 minutes at 37° C. and 5% CO2 in a humidified plastic tray. To test for antagonist activity 5 μL of assay buffer containing forskolin (Sigma F-6886. 4 μM for BLT1) and either LTB4 (Sigma Aldrich L0517; 2 nM BLT1) was added and incubated for 30 minutes at 37° C. and 5% CO2 in a humidified plastic tray.
The levels of cAMP were detected using the CisBio kit following the manufacturer's instructions: cAMP-d2 vial was reconstituted with distilled water and then diluted accordingly with conjugate & lysis buffer. 5 μL of cAMP-d2 working solution was added to all of the wells of the assay plate. cAMP-Cryptate vial was reconstituted with distilled water and then diluted accordingly with conjugate & lysis buffer. 5 μL of cAMP-Cryptate working solution were added to the assay plate. The assay plate was shaken for 3 minutes and incubated at room temperature for 45 minutes, then read on Perkin Elmer Envision. cAMP standard curve and fit data were plotted using a 4 parameter dose response curve fitting algorithm to fit curve. A 4-parameter curve fit (Max, min, log EC50 and slope) was used to transform fluorescent 665 nm/615 nm ratio signal to cAMP concentration. After normalization to treated and untreated controls, the percent effect of signal at each compound concentration was calculated. The plot of percent effect versus the log of compound concentration was fit with a 4-parameter concentration response equation to calculate EC50 values. Compound concentrations tested were 10 000, 3 333, 1 111, 370.4, 123.4, 41.2, 13.7, 4.6, 1.5 and 0.5 nM with 0.25% residual DMSO.

Sequence of human BLT1 receptor (Q15722 whole entry): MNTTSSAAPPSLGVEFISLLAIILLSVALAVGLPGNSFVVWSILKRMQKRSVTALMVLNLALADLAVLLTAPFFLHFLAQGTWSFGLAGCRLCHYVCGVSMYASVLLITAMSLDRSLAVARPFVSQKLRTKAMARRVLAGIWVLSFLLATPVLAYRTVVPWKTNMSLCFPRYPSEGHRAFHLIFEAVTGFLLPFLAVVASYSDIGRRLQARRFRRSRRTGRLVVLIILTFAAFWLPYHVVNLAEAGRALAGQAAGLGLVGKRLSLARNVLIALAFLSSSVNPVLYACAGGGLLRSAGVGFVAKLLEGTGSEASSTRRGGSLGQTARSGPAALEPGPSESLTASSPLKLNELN

SMILES	EC50 [nM]
CC(C)(C)S(=O)(=O)NC(=O)c1ccccc1-c1ccc2c(c1)OC[C@@H](Cc1ccc(-c3cncs3)cn1)[C@@H]2O (racemic) [Example 4, N-(tert-Butylsulfonyl)-2-((rac-trans)-4-hydroxy-3-((5-(thiazol-5-yl)pyridin-2-yl)methyl)chroman-7-yl)benzamide]	8
Cc1ncc(-c2ccc(C[C@@H]3COc4cc(-c5ccccc5C(=O)NS(=O)(=O)C(C)(C)C)ccc4[C@H]3O)nc2)s1 (racemic) [Example 7, N-(tert-Butylsulfonyl)-2-((rac-trans)-4-hydroxy-3-((5-(2-methylthiazol-5-yl)pyridin-2-yl)methyl)chroman-7-yl)benzamide]	5
O=C(NS(=O)(=O)C1CC1)c1ccccc1-c1ccc2c(c1)OC[C@@H](Cc1ccc(-c3cncs3)cn1)[C@@H]2O (racemic) [Example 8, N-(Cyclopropylsulfonyl)-2-((rac-trans)-4-hydroxy-3-((5-(thiazol-5-yl)pyridin-2-yl)methyl)chroman-7-yl)benzamide]	12
Cc1ncc(-c2ccc(C[C@@H]3COc4cc(-c5ccccc5C(=O)NS(=O)(=O)C5CC5)ccc4[C@H]3O)nc2)s1 (racemic) [Example 9, N-(Cyclopropylsulfonyl)-2-((rac-trans)-4-hydroxy-3-((5-(2-methylthiazol-5-yl)pyridin-2-yl)methyl)chroman-7-yl)benzamide]	9
CC1(S(=O)(=O)NC(=O)c2ccccc2-c2ccc3c(c2)OC[C@H](Cc2ccc(-c4cncs4)cn2)[C@H]3O)CC1 (single isomer, unassigned) [Example 2, 2-((3S, 4R or 3R, 4S)-4-Hydroxy-3-((5-(thiazol-5-yl)pyridin-2-yl)methyl)chroman-7-yl)-N-((1-methylcyclopropyl)sulfonyl)benzamide]	6
CC1(S(=O)(=O)NC(=O)c2ccccc2-c2ccc3c(c2)OC[C@@H](Cc2ccc(-c4cncs4)cn2)[C@@H]3O)CC1 (single isomer, unassigned) [Example 3, 2-((3R, 4S or 3S, 4R)-4-Hydroxy-3-((5-(thiazol-5-yl)pyridin-2-yl)methyl)chroman-7-yl)-N-((1-methylcyclopropyl)sulfonyl)benzamide]	78
CC(C)(C)S(=O)(=O)NC(=O)c1ccccc1-c1ccc2c(c1)OC[C@H](Cc1ccc(-c3cncs3)cn1)[C@H]2O (single isomer, unassigned) [Example 5, N-(tert-Butylsulfonyl)-2-((3S, 4R or 3R, 4S)-4-hydroxy-3-((5-(thiazol-5-yl)pyridin-2-yl)methyl)chroman-7-yl)benzamide]	5
CC(C)(C)S(=O)(=O)NC(=O)c1ccccc1-c1ccc2c(c1)OC[C@@H](Cc1ccc(-c3cncs3)cn1)[C@@H]2O (single isomer, unassigned) [Example 6, N-(tert-Butylsulfonyl)-2-((3R, 4S or 3S, 4R)-4-hydroxy-3-((5-(thiazol-5-yl)pyridin-2-yl)methyl)chroman-7-yl)benzamide]	128
Cc1ncc(-c2ccc(C[C@H]3COc4cc(-c5ccccc5C(=O)NS(=O)(=O)C5CC5)ccc4[C@@H]3O)nc2)s1 (single isomer, unassigned) [Example 10, N-(Cyclopropylsulfonyl)-2-((3S,4R or 3R,4S)-4-hydroxy-3-((5-(2-methylthiazol-5-yl)pyridin-2-yl)methyl)chroman-7-yl)benzamide]	6
Cc1ncc(-c2ccc(C[C@@H]3COc4cc(-c5ccccc5C(=O)NS(=O)(=O)C5CC5)ccc4[C@H]3O)nc2)s1 (single isomer, unassigned) [Example 11, N-(Cyclopropylsulfonyl)-2-((3R,4S or 3S,4R)-4-hydroxy-3-((5-(2-methylthiazol-5-yl)pyridin-2-yl)methyl)chroman-7-yl)benzamide]	391
CC1(S(=O)(=O)NC(=O)c2ccccc2-c2ccc3c(c2)OC[C@@H](Cc2ccc(-c4cncs4)cn2)[C@@H]3O)CC1 [Example 1, 2-((Rac-trans)-4-Hydroxy-3-((5-(thiazol-5-yl)pyridin-2-yl)methyl)chroman-7-yl)-N-((1-methylcyclopropyl)sulfonyl)benzamide]	6

From patent US10370368B2, “Aryl acylsulfonamides as BLT1 antagonists” (Merck Sharp & Dohme Corp., priority 2015, dated 2019)
